Data from ChEMBL document CHEMBL5126587 (Bioorg Med Chem, 2022).
Activity calls are given as the source filed them. The rule behind the calls is not given here. Numbered stars: 1 amine (or outer) side, 2 acyl side, 3 side chain; on linkers, the order of the positions; unused ones are H or OH. Peptide text beside a SMILES is read from it. * marks the point of attachment. X1 = NC(=O)c1n[nH]nc1[C@@H]1O[C@H](COC(=O)CCC(=O)NCCCOCCOCCOCCCN*)[C@@H](O)[C@H]1O; Suc = O=C(CCC(=O)[*:2])[*:1]

Key:
Hepatitis C virus [1] = format: functional, Hepacivirus hominis, genotype 2a (JFH-AM71), Huh7-J20; settings: dose 100 µM; time 72 hrs
Zika virus [2] = format: functional, H/PAN/2016/BEI-259634, Vero
in vitro [3] = settings: human, Huh7-J20 cells
Hepatitis C virus [4] = assay: microbe, parasite or virus in culture; settings: genotype 2a (JFH-AM71), Huh7-J20, 72 h
Hepatitis C virus [5] = format: functional, Hepacivirus hominis, genotype 2a (JFH-AM71), Huh7-J20; settings: dose 0.045 µM; time 72 hrs
Zika virus [6] = format: functional, H/PAN/2016/BEI-259634, Huh7.5
in vitro [7] = settings: monkey, Vero cells
in vitro [8] = settings: human, Huh7.5 cells
Zika virus [9] = assay: microbe, parasite or virus in culture; settings: H/PAN/2016/BEI-259634, Huh7.5, 72 h
Zika virus [10] = assay: microbe, parasite or virus in culture; settings: H/PAN/2016/BEI-259634, Vero, 72 h
Zika virus [11] = format: functional, H/PAN/2016/BEI-259634, Huh7.5; settings: dose 50-100 µM; time 3 day; at 50 to 100 µM
Zika virus [12] = format: functional, H/PAN/2016/BEI-259634, Vero; settings: dose 50-100 µM; time 3 day; at 50 to 100 µM
[13] = H/PAN/2016/BEI-259634, Huh7.5, dose 100.0 µM, time 3.0 day

| Compound | Activity (Hepatitis C virus [1]) | Activity (Zika virus [2]; dose 100 µM, time 3 day) | selectivity ratio (in vitro [3]) | IC50 (Hepatitis C virus [4]) | Activity (Zika virus [6]; [13]) | other results |
| --- | --- | --- | --- | --- | --- | --- |
| O=C(NCCCO)c1n[nH]nc1[C@@H]1O[C@H](CO)[C@@H](O)[C@H]1O | 45% | 20% | 13.4 | 68 µM |  |  |
| CC[C@H](C)[C@H](NC(=O)[C@H](Cc1cnc[nH]1)NC(=O)[C@H](Cc1c[nH]c2ccccc12)NC(=O)[C@H](CO)NC(=O)CCC(=O)NCCCOCCOCCOCCCNC(=O)CCC(=O)OC[C@H]1O[C@@H](c2n[nH]nc2C(N)=O)[C@H](O)[C@@H]1O)C(=O)N[C@@H](CC(N)=O)C(=O)N[C@@H](CCCNC(=N)N)C(=O)N[C@H](C(=O)N[C@@H](C)C(=O)N[C@@H](CC(C)C)C(=O)N[C@@H](CC(N)=O)C(=O)N[C@@H](CO)C(=O)N[C@@H](CC(N)=O)C(=O)N[C@@H](CC(=O)O)C(=O)N[C@@H](CO)C(N)=O)[C@@H](C)O ({X1-Suc}-SWHINRTALNSNDS-NH2) |  |  |  |  |  | Activity (Hepatitis C virus [5]): 45% |
| NC(=O)c1ncn([C@@H]2O[C@H](CO)[C@@H](O)[C@H]2O)n1 [RIBAVIRIN] | 80% | 80% | 46.8 | 21.8 µM |  | Activity (Zika virus [6]; dose 100 µM, time 3 day): 80%; selectivity ratio (in vitro [7]): 41.6; selectivity ratio (in vitro [8]): 240; IC50 (Zika virus [9]): 6.9 µM; IC50 (Zika virus [10]): 29.9 µM |
| NC(=O)c1n[nH]nc1[C@@H]1O[C@H](CO)[C@@H](O)[C@H]1O | 60% | 20% | 15.7 | 68 µM |  |  |
| CCCNC(=O)c1n[nH]nc1[C@@H]1O[C@H](CO)[C@@H](O)[C@H]1O | 45% |  | 7.3 | 100 µM | Active |  |
| N=C(N)NCCC[C@H](NC(=O)[C@H](CCCNC(=N)N)NC(=O)[C@H](CCCNC(=N)N)NC(=O)[C@H](CCC(N)=O)NC(=O)[C@H](CCCNC(=N)N)NC(=O)[C@H](CCCNC(=N)N)NC(=O)[C@H](CCCCN)NC(=O)[C@H](CCCCN)NC(=O)[C@H](CCCNC(=N)N)NC(=O)CNC(=O)[C@H](Cc1ccc(O)cc1)NC(=O)CCC(=O)NCCCOCCOCCOCCCNC(=O)CCC(=O)OC[C@H]1O[C@@H](c2n[nH]nc2C(N)=O)[C@H](O)[C@@H]1O)C(N)=O |  |  |  |  |  | Activity (Hepatitis C virus [5]): 45% |
| O=C(NO)c1n[nH]nc1[C@@H]1O[C@H](CO)[C@@H](O)[C@H]1O | 67% |  | 16.8 | 49.1 µM | Active | Activity (Zika virus [2]; H/PAN/2016/BEI-259634, Vero, dose 100.0 µM, time 3.0 day): Active; Activity (Zika virus [11]): 70%; Activity (Zika virus [12]): 70%; selectivity ratio (in vitro [7]): 29.1; selectivity ratio (in vitro [8]): 23.8; IC50 (Zika virus [9]): 37.3 µM; IC50 (Zika virus [10]): 33.2 µM |
| CC(=O)OC[C@H]1O[C@@H](c2n[nH]nc2C(N)=O)[C@H](OC(C)=O)[C@@H]1OC(C)=O |  |  |  |  | Active |  |
